One assay addresses human H-PGDS (Homo sapiens, UniProt O60760). Nature of the assay: Hematopoietic prostaglandin D synthase (H-PGDS) inhibiting action, [14C]PGH2 to PGD2 conversion, TLC radioassay. Format: biochemical. The conditions noted are these: compound 0.1 μM; inhibition rate relative to solvent control group; [14C] prostaglandin H2 10 μM, 25° C. How it is done:
The test was carried out according to the method of Urade, Y. et al. (J. Biol. Chem., 262, 3820-3825, (1987)). More specifically, a reaction mixture (49 μL) containing 100 mM Tris-HCl (pH 8.0), 1 mM reduced form glutathione, 0.1 mg/mL γ-globulin, human H-PGDS (q.s.), and a compound (0.1 μM) was preincubated at 25° C. for 5 minutes. A DMSO solution (final concentration: 1%) was added to the solvent control group. Subsequently, 1 μL of [^14C] prostaglandin H2 (final concentration: 10 μM) was added to start the reaction. One minute after the start of the reaction, 250 μL of a reaction stopper solution (diethylether/methanol/1M citric acid (30/4/1)) cooled with ice was added to stop the reaction. After the reaction was stopped, 50 μL of the upper layer portion (organic solvent phase) was applied to a TLC plate and developed at −20° C. for 45 minutes (developing solvent: diethylether/methanol/acetic acid (90/2/1)). After the TLC plate was dried and exposed to an imaging plate for 1 to 24 hours, the radioactivity corresponding to prostaglandin D2 (PGD2) was analyzed using an image analyzer (produced by Fujifilm Corporation). The area (%) occupied by the PGD2 band per lane and the inhibition rate (%) of each Example compound at 0.1 μM relative to the control group in each experiment were calculated.
human H-PGDS, sequence (O60760 whole entry): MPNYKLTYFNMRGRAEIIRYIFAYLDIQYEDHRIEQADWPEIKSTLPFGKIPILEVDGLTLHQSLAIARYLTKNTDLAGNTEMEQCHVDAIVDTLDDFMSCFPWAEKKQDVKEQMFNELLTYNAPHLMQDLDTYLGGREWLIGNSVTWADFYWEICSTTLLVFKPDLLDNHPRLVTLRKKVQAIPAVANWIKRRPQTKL
On to “N-(4-(morpholin-1-yl-carbonyl)phenyl)-2-(4-(pyridin-2-ylmethylene)piperidine-1-carboxamido)thiazole-5-carboxamide [Example 19]”, for which the “H-PGDS inh. (% at 0.1 μM)” value turned out to be 55.1%.
Turning to “N-(4-(2-(4-(pyridin-2-ylmethylene)piperidine-1-carboxamido)thiazol-5-yl)phenyl)morpholin-1-yl-carboxamide [Example 25]”, the “H-PGDS inh. (% at 0.1 μM)” value stood at 56.4%.
As to “N-(6-(1H-1,2,3-triazol-1-ylmethyl)acetamide)benzo[d]thiazol-2-yl)-4-(pyridin-2-ylmethylene)-piperidine-1-carboxamide [Example 12]”, the “H-PGDS inh. (% at 0.1 μM)” value came out at 52.5%.
On the same count and under the same terms, the same measure for “N-(5-(4-(cyclopropylcarboxamido)phenyl)thiazol-2-yl)-4-(pyridin-2-ylmethylene)piperidine-1-carboxamide [Example 21]”: 58.7%.

The assay is the same for the next values; noted with them: compound 0.1 μM; inhibition rate relative to solvent control group; [14C] prostaglandin H2 10 μM, 25° C.; read-out: H-PGDS inh. (% at 0.1 μM).
Take `O=C(Nc1ccc(OCc2ccccc2)cc1)N1CCC(=Cc2cc(F)ccc2F)CC1` [Example 69, N-(4-(benzyloxy)phenyl)-4-(2,5-difluorobenzylidene)piperidine-1-carboxamide]: the inhibition at 0.1 µM stood at 51.3%.
The same measure, in the same setting: for `O=C(O)c1ccc(NC(=O)c2cnc(NC(=O)N3CCC(=Cc4ccccn4)CC3)s2)cc1` [Example 18, 4-(2-(4-(pyridin-2-ylmethylene)piperidine-1-carboxamido)thiazole-5-carboxamido)benzoic acid] the value was 65.1%; for `O=C(Nc1ccc(NC(=O)N2CCC(=Cc3cc(F)ccc3F)CC2)cc1)c1ccsc1` [Example 76, 4-(2,5-difluorobenzylidene)-N-(4-(thiophene-3-carboxamido)phenyl)piperidine-1-carboxamide], 79.4%.
Same read-out and setting: the same measure for `O=C(NC1CCN(C(=O)C2CC2)CC1)N1CCC(=Cc2cc(F)ccc2F)CC1` [Example 45, N-(1-(cyclopropanecarbonyl)piperidin-4-yl)-4-(2,5-difluorobenzylidene)piperidine-1-carboxamide]: 48.8%; for `O=C(NC1CCN(C(=O)C2CCC2)CC1)N1CCC(=Cc2cc(F)ccc2F)CC1` [Example 50, N-(1-(cyclobutanecarbonyl)piperidin-4-yl)-4-(2,5-difluorobenzylidene)piperidine-1-carboxamide]: 59.9%.
On the same count and under the same terms, the same measure for `O=C(NC1CCN(C(=O)c2cccc(F)n2)CC1)N1CCC(=Cc2cc(F)ccc2F)CC1` [Example 66, 4-(2,5-difluorobenzylidene)-N-(1-(6-fluoropicolinoyl)piperidin-4-yl)piperidine-1-carboxamide]: 68.6%; for `O=C(Nc1ccc(NC(=O)N2CCC(=Cc3cc(F)ccc3F)CC2)cc1)c1ccccn1` [Example 74, N-(4-(4-(2,5-difluorobenzylidene)piperidine-1-carboxamido)phenyl)picolinamide]: 70.9%; for `CS(=O)(=O)NC(=O)c1ccc(-c2cnc(NC(=O)N3CCC(=Cc4ccccn4)CC3)s2)cc1` [Example 23, N-(5-(4-(methylsulfonylcarbamoyl)phenyl)thiazol-2-yl)-4-(pyridin-2-ylmethylene)piperidine-1-carboxamide]: 65.9%.
Regarding `O=C(Nc1ccc(CCn2ccnn2)cc1)c1cnc(NC(=O)N2CCC(=Cc3ccccn3)CC2)s1` [Example 14, N-(4-(2-(1H-1,2,3-triazol-1-yl)ethyl)phenyl)-2-(4-(pyridin-2-ylmethylene)piperidine-1-carboxamido)thiazole-5-carboxamide], the inhibition at 0.1 µM worked out at 53.9%.
For the molecule `O=C(NC1CCN(C(=O)c2ccccc2F)CC1)N1CCC(=Cc2cc(F)ccc2F)CC1` [Example 60, 4-(2,5-difluorobenzylidene)-N-(1-(2-fluorobenzoyl)piperidin-4-yl)piperidine-1-carboxamide], the inhibition at 0.1 µM turned out to be 67.1%.
Still for that read-out and setting: for `O=C(NC1CCN(C(=O)C(F)(F)F)CC1)N1CCC(=Cc2cc(F)ccc2F)CC1` [Example 38, 4-(2,5-difluorobenzylidene)-N-(1-(2,2,2-trifluoroacetyl)piperidin-4-yl)piperidine-1-carboxamide] the value was 82.9%; for `O=C(NC1CCN(C(=O)C(F)F)CC1)N1CCC(=Cc2cc(F)ccc2F)CC1` [Example 43, N-(1-(2,2-difluoroacetyl)piperidin-4-yl)-4-(2,5-difluorobenzylidene)piperidine-1-carboxamide], 68%; for `O=C(NC1CC1)c1ccc(-c2ccc(NC(=O)N3CCC(=Cc4ccccn4)CC3)cn2)cc1` [Example 30, N-(6-(4-(cyclopropylcarbamoyl)phenyl)pyridin-3-yl)-4-(pyridin-2-ylmethylene)piperidine-1-carboxamide], 67.1%.
`O=C(NC1CCN(C(=O)c2cscn2)CC1)N1CCC(=Cc2cc(F)ccc2F)CC1` [Example 59, 4-(2,5-difluorobenzylidene)-N-(1-(thiazole-4-carbonyl)piperidin-4-yl)piperidine-1-carboxamide]: the inhibition at 0.1 µM came out at 76.8%.
With `CN(C)C(=O)N1CCC(NC(=O)N2CCC(=Cc3cc(F)ccc3F)CC2)CC1` [Example 52, 4-(4-(2,5-difluorobenzylidene)piperidine-1-carboxamido)-N,N-dimethylpiperidine-1-carboxamide], the inhibition at 0.1 µM turned out to be 74.6%.
For `O=C(Nc1nc2ccc(-c3cccnc3)cc2s1)N1CCC(=Cc2ccccn2)CC1` [Example 3, N-(6-(pyridin-3-yl)-benzo[d]thiazol-2-yl)-4-(pyridin-2-ylmethylene)-piperidine-1-carboxamide], the inhibition at 0.1 µM turned out to be 85.7%.
Same read-out and setting: for `O=C(NC1CCN(C(=O)c2ccccc2)CC1)N1CCC(=Cc2cc(F)ccc2F)CC1` [Example 47, N-(1-benzoylpiperidin-4-yl)-4-(2,5-difluorobenzylidene)piperidine-1-carboxamide] the value was 62%; for `O=C(NC1CCN(C(=O)N2CCCCC2)CC1)N1CCC(=Cc2cc(F)ccc2F)CC1` [Example 57, 4-(2,5-difluorobenzylidene)-N-(1-(piperidine-1-carbonyl)piperidin-4-yl)piperidine-1-carboxamide], 62.3%.
Turning to `O=C(NC1CCN(CC(F)(F)F)CC1)N1CCC(=Cc2cc(F)ccc2F)CC1` [Example 35, 4-(2,5-difluorobenzylidene)-N-(1-(2,2,2-trifluoroethyl)piperidin-4-yl)piperidine-1-carboxamide], the inhibition at 0.1 µM is 77.2%.
For the molecule `O=C(Nc1ccc(Nc2ccccc2)cc1)N1CCC(=Cc2ccccn2)CC1` [Example 71, N-(4-(phenylamino)phenyl)-4-(pyridin-2-ylmethylene)piperidine-1-carboxamide], the inhibition at 0.1 µM was 62.9%.
On to `O=C(Nc1nc2ccc(Br)cc2s1)N1CCC(=Cc2ccccn2)CC1` [Example 1, N-(6-bromobenzo[d]thiazol-2-yl)-4-(pyridin-2-ylmethylene)-piperidine-1-carboxamide], for which the inhibition at 0.1 µM amounted to 70.9%.
Still for that read-out and setting: the same measure for `O=C(Nc1ccc(-c2cnc(NC(=O)N3CCC(=Cc4ccccn4)CC3)s2)cc1)c1cscn1` [Example 26, N-(4-(2-(4-(pyridin-2-ylmethylene)piperidine-1-carboxamido)thiazol-5-yl)phenyl)thiazole-4-carboxamide]: 57.4%.

The record behind these values is patent US9181183B2, “Prostaglandin D synthase inhibitory piperidine compounds” (Taiho Pharmaceutical Co., Ltd., priority 2010, dated 2015).
